Legend:
4T1 breast cancer model = 4T1 breast cancer model tumor growth in BALB/c mice; format: in vivo; settings: 4T1 in BALB/c mice; propranolol started three days before anti-PD-1
[1] = system: murine pancreatic tumor (Pan02); experiment: Pan02 pancreatic tumor growth in C57BL/6 mice; format: in vivo
Procedure: To obtain the data presented in FIG. 1, a murine pancreatic tumor (Pan02) was engrafted in C57BL/6 mice. When tumors reached an average size of 50-100 mm^3, tumor bearing mice were assigned to one of four experimental groups and treatment was initiated. Groups of mice received: (1) saline (control), (2) anti-PD-1 antibody (BIO X CELL®, 200 μg/dose every 3 days), (3) the β-adrenergic signaling antagonist propranolol (10 mg/kg daily by intraperitoneal injection) or (4) combination therapy. Tumor growth was monitored and graphed as relative tumor volume compared to each tumor's starting volume. […] The data accordingly indicate that the combination therapy can be effective against pancreatic tumors that are resistant to treatment with the checkpoint inhibitor alone.

In the case of `CC(C)NCC(O)COc1cccc2ccccc12` (stereo not drawn) [propranolol], the “tumor growth (absolute and relative tumor volume)” value (4T1 breast cancer model) is reported as “neither propranolol nor anti-PD-1 mAb alone has any impact on tumor growth”, the “tumor growth (relative tumor volume compared to starting volume)” value ([1]; Pan02 in C57BL/6 mice, anti-PD-1 200 μg/dose every 3 days, propranolol 10 mg/kg daily i.p., Students t-test) is reported as “neither anti-PD-1 nor propranolol alone caused a statistically significant decrease in tumor growth” and the “efficacy of anti-PD-1 checkpoint inhibition” value ([1]; propranolol added to anti-PD-1, Pan02 tumors in C57BL/6 mice, p<0.05) is reported as “significantly improved the efficacy of anti-PD-1 checkpoint inhibition”.
